Source: ChEMBL document CHEMBL5291721, “A preclinical secondary pharmacology resource illuminates target-adverse drug reaction associations of marketed drugs” (Nat Commun, 2023)

Key:
Acetylcholinesterase = Acetylcholinesterase (Homo sapiens, UniProt P22303); assay type: functional
[1] = target: T1, Alpha-2A adrenergic receptor (Homo sapiens, UniProt P08913)
T1 sequence (P08913 whole entry): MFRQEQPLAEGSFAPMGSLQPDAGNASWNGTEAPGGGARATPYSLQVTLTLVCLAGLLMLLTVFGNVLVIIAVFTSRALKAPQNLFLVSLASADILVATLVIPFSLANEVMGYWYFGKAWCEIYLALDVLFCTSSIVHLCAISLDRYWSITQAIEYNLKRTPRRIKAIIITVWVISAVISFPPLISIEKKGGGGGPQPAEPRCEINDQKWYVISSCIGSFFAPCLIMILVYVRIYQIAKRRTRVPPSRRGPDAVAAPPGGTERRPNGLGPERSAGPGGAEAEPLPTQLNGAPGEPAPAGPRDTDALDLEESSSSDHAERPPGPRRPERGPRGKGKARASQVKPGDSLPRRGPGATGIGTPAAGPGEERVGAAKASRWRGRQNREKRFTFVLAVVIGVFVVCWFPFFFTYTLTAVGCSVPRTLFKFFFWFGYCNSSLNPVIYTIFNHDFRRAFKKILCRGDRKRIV

Vasopressin V1a receptor = Vasopressin V1a receptor (Homo sapiens, UniProt P37288)
Vasopressin V1a receptor, sequence (P37288 whole entry): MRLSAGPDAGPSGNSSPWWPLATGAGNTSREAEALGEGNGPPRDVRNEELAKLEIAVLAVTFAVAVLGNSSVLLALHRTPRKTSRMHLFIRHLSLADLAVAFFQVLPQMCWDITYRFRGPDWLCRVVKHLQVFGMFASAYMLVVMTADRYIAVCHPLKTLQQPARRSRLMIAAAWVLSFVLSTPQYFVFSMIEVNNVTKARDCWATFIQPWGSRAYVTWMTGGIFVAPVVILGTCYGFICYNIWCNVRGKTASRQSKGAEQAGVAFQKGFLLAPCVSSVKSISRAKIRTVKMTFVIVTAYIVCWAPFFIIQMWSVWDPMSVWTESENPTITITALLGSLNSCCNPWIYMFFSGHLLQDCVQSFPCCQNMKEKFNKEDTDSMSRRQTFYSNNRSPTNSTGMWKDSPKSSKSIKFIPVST

[2] = target: T2, Muscarinic acetylcholine receptor M2 (Homo sapiens, UniProt P08172); assay type: functional, cell-based
T2 sequence (P08172 whole entry): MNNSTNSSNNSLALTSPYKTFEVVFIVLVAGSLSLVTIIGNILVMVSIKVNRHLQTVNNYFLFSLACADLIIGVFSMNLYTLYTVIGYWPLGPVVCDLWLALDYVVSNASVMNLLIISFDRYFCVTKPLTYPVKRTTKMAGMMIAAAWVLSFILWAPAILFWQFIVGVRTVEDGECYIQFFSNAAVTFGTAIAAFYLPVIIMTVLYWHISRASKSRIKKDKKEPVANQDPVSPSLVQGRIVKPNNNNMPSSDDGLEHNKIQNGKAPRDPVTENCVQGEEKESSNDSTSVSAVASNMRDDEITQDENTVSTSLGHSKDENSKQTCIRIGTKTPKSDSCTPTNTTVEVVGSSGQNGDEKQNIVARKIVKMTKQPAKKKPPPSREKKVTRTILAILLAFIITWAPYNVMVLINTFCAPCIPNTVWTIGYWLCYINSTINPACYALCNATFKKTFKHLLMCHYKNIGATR

[3] = target: T2, Muscarinic acetylcholine receptor M2
Prothrombin = Prothrombin (Homo sapiens, UniProt P00734); assay type: functional
Histamine H3 receptor = Histamine H3 receptor (Homo sapiens, UniProt Q9Y5N1)
Histamine H3 receptor, sequence (Q9Y5N1 whole entry): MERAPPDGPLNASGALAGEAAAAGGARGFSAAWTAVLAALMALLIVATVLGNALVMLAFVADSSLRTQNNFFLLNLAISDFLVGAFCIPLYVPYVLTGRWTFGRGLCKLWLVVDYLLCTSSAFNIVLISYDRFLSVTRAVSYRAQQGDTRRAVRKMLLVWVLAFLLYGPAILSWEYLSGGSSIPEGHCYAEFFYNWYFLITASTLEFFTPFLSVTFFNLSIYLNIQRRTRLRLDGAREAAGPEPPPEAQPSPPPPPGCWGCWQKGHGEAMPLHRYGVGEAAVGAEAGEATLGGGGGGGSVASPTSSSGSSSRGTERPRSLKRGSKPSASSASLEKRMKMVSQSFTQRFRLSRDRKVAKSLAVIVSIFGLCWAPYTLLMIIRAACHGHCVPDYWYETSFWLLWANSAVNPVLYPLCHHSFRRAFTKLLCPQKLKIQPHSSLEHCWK

[4] = target: T3, 5-hydroxytryptamine receptor 1A (Homo sapiens, UniProt P08908)
T3 sequence (P08908 whole entry): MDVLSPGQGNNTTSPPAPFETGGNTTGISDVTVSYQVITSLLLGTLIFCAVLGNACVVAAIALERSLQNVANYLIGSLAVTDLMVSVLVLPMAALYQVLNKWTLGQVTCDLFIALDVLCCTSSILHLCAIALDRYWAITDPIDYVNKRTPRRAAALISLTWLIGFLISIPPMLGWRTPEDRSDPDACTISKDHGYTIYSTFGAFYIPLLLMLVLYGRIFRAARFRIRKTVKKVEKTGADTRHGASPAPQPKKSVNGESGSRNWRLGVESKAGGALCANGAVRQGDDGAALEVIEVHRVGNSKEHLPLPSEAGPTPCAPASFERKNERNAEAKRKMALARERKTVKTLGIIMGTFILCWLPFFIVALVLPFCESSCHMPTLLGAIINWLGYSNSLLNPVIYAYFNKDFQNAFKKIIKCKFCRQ

[5] = target: 5-hydroxytryptamine receptor 2B (Homo sapiens, UniProt P41595); assay type: functional, cell-based
5-hydroxytryptamine receptor 2B, sequence (P41595 whole entry): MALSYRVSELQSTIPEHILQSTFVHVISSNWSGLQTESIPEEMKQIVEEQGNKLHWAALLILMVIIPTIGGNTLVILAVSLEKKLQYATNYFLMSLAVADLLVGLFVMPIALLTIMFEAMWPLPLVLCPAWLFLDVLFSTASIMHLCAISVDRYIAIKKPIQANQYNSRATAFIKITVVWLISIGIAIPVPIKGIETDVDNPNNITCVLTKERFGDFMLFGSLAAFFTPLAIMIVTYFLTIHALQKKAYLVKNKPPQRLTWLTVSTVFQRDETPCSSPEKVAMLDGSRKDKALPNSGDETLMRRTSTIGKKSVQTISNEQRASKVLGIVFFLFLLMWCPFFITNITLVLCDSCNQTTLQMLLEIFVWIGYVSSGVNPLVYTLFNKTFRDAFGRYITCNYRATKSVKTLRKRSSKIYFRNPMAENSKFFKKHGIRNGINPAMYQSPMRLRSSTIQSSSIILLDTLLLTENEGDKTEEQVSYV

[6] = target: Voltage-gated inwardly rectifying potassium channel KCNH2 (Homo sapiens, UniProt Q12809); assay type: functional
[7] = target: T4, Amine oxidase [flavin-containing] A (Homo sapiens, UniProt P21397); assay type: functional
T4 sequence (P21397 whole entry): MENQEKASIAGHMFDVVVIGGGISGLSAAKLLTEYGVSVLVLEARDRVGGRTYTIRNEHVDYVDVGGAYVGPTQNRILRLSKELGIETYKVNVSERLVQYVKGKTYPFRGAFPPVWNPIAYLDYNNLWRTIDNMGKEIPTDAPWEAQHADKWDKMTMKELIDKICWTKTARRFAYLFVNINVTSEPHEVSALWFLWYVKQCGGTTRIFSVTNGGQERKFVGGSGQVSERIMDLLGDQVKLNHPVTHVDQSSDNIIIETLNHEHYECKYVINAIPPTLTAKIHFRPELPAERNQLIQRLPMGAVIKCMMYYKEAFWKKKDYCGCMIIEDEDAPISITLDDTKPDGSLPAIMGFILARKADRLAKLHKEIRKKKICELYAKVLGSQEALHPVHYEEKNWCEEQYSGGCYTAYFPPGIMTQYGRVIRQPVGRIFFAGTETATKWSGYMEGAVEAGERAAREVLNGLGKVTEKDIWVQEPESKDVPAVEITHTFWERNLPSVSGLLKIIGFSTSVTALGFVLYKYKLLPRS

[8] = target: cGMP-inhibited 3',5'-cyclic phosphodiesterase 3A (Homo sapiens, UniProt Q14432); assay type: functional
cGMP-inhibited 3',5'-cyclic phosphodiesterase 3A, sequence (Q14432 whole entry): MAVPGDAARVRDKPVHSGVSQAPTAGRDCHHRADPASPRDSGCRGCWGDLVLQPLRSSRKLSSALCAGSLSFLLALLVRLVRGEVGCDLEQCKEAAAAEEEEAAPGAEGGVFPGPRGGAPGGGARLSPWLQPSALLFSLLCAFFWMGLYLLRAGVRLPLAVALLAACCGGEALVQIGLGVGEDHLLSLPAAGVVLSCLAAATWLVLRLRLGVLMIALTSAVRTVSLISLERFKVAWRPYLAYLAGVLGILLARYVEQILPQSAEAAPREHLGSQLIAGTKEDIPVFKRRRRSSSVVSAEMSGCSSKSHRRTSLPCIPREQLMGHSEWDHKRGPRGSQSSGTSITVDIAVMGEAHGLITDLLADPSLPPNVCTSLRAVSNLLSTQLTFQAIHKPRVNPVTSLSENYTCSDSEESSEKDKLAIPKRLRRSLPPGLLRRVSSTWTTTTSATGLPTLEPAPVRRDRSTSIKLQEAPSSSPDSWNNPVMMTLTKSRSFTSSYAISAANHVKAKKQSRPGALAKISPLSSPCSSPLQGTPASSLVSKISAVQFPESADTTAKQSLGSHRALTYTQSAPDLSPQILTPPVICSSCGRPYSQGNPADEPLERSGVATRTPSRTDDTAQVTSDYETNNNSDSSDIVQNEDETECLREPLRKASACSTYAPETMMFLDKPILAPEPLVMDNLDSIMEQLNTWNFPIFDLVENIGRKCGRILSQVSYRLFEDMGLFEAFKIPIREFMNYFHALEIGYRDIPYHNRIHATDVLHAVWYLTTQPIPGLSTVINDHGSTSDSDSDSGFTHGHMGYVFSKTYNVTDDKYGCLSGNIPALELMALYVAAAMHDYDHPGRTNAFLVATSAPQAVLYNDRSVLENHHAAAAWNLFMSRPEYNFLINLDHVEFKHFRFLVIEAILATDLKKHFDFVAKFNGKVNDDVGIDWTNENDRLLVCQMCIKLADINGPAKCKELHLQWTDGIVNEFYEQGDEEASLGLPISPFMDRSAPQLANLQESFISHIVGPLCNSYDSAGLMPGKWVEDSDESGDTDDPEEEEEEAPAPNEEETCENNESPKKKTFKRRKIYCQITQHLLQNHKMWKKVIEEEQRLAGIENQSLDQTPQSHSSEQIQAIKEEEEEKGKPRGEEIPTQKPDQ

[9] = target: 3',5'-cyclic-AMP phosphodiesterase 4A (Homo sapiens, UniProt P27815); assay type: functional
3',5'-cyclic-AMP phosphodiesterase 4A, sequence (P27815 whole entry): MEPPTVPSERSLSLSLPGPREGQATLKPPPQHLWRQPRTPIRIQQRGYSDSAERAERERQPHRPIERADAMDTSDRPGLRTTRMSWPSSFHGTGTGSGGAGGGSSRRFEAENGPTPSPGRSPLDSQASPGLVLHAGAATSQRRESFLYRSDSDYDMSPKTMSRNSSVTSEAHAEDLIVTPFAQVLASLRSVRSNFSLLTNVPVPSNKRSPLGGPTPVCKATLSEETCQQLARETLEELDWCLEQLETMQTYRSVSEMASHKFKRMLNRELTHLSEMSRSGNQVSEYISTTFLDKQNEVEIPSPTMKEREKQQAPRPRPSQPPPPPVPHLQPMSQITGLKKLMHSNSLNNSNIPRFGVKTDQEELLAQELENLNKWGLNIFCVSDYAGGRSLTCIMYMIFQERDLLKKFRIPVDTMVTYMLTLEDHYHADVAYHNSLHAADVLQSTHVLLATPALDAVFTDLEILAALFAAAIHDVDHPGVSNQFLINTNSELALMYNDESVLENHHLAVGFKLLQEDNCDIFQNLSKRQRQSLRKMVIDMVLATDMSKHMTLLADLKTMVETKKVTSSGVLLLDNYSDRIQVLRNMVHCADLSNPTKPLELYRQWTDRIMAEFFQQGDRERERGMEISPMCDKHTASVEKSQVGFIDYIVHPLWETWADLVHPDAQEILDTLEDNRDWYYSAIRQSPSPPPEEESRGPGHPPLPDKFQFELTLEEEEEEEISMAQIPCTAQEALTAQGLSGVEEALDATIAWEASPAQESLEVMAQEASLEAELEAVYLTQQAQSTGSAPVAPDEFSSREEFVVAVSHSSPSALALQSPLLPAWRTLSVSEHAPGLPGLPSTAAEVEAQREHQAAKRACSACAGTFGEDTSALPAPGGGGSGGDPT

[10] = target: Sodium-dependent dopamine transporter (Homo sapiens, UniProt Q01959)
Sodium-dependent dopamine transporter, sequence (Q01959 whole entry): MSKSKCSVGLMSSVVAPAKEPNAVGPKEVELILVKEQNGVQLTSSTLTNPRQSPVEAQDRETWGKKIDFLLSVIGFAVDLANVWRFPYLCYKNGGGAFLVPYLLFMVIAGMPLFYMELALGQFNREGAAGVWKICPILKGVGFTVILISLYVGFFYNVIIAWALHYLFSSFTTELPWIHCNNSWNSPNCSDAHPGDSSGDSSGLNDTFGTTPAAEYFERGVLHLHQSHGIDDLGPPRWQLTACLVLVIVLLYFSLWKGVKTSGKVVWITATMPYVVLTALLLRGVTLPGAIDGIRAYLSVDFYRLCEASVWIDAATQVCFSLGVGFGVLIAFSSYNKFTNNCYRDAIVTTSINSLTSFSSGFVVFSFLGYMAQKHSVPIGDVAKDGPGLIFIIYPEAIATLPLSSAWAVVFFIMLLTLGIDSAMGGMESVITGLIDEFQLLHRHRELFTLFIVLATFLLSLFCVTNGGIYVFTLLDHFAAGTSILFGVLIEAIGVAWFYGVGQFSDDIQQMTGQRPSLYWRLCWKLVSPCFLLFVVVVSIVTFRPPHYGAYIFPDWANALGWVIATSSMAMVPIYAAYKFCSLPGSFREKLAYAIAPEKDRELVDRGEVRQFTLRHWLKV

Thromboxane A2 receptor [11] = target: T5, Thromboxane A2 receptor (Homo sapiens, UniProt P21731); assay type: functional, cell-based
T5 sequence (P21731 whole entry): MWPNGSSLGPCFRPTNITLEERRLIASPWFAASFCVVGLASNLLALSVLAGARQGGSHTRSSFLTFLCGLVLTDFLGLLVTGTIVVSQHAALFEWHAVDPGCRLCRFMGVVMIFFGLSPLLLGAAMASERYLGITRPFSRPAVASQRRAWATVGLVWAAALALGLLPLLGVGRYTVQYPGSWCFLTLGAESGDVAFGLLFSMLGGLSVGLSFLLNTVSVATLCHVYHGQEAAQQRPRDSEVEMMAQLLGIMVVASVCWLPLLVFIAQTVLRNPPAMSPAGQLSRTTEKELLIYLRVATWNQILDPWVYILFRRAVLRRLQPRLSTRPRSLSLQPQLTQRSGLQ

Thromboxane A2 receptor [12] = target: T5, Thromboxane A2 receptor; assay type: functional, cell-based; remark: listed apart in the source
Note: assay procedure not described here.

Acetylcholinesterase, sequence (P22303 whole entry): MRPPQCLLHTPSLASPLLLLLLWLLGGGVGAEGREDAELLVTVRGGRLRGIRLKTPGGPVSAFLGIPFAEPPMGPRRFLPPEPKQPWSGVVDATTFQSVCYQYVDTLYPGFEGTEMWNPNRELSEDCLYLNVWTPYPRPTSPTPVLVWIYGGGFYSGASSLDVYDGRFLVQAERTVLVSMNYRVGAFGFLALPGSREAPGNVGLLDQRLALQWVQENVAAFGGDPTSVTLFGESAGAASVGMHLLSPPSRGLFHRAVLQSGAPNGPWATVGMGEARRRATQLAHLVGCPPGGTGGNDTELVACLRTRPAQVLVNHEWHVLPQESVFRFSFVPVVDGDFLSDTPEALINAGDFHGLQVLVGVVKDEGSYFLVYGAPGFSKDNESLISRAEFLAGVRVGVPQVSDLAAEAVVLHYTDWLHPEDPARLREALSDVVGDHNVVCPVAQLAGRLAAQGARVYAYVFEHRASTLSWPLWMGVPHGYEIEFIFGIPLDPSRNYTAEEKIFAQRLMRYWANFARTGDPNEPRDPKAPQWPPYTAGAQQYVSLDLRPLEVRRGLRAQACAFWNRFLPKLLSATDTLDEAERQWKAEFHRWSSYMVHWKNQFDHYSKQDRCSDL

| SMILES | AC50 (Acetylcholinesterase) [µM] | AC50 [1] [µM] | AC50 (Vasopressin V1a receptor) [µM] | AC50 [2] [µM] | AC50 [3] [µM] | AC50 (Prothrombin) [µM] | AC50 (Histamine H3 receptor) [µM] | AC50 [4] [µM] | AC50 [5] [µM] | AC50 [6] [µM] | AC50 [7] [µM] | AC50 [8] [µM] | AC50 [9] [µM] | AC50 [10] [µM] | AC50 (Thromboxane A2 receptor [11]) [µM] | AC50 (Thromboxane A2 receptor [12]) [µM] |
| --- | --- | --- | --- | --- | --- | --- | --- | --- | --- | --- | --- | --- | --- | --- | --- | --- |
| C[C@@H]1C[C@H]2[C@@H]3C[C@H](F)C4=CC(=O)C=C[C@]4(C)[C@@]3(F)[C@@H](O)C[C@]2(C)[C@@]1(OC(=O)c1ccco1)C(=O)SCF [FLUTICASONE FUROATE] | > 30 | > 30 | > 10 | > 10 | > 30 | > 30 | > 30 | > 30 | > 30 | > 30 | > 30 | > 30 | > 30 | > 30 | > 30 | > 30 |
| COC(=O)[C@H]1[C@H]2C[C@@H]3c4[nH]c5cc(OC)ccc5c4CCN3C[C@H]2C[C@@H](OC(=O)c2cc(OC)c(OC)c(OC)c2)[C@@H]1OC [RESERPINE] | > 30 | > 30 | > 10 | > 10 | > 30 | > 30 | > 30 | > 30 | > 30 | 1.46 | > 30 | > 3 | > 3 | 29.3 | > 30 | > 30 |
